For orientation: melting point means the temperature of the solid-liquid transition.

As to `CCOc1cc(C(=O)O)ccc1C`, the melting point lay in the range of 173 to 175 °C.

Take `COc1ccc2[nH]nc(N)c2c1`: the melting point was 159 to 161 °C.

The compound `O=C(O)c1cc(-c2ccccc2)nc2c1cnn2Cc1ccco1` registered a melting point of 242 to 244 °C.

`O=c1[nH]c2c(s1)CCCC2` had a melting point of 141 to 143 °C.

With `CC(C)CC1CC(=O)NC(=O)C1`, the melting point was in the range of 136 to 138 °C.

The compound `CC(C)C(Br)C(=O)N1CCOCC1` (centres undefined) gave a melting point of 71 to 73 °C.

In turn, `O=Cc1ccc(-c2ccc(Br)cc2)s1` showed a melting point of 110 to 112 °C.

As to `Nc1cc(C2CCCO2)no1` (centres undefined), the melting point was 68 to 70 °C.

Take `Clc1nnc(-c2cccc3ncccc23)s1`: the melting point was in the range of 143 to 145 °C.

Consider `COc1ccc(C(=O)O)cc1S(=O)(=O)N1CC(C)CC(C)C1` (centres undefined), for which the melting point is 262 to 264 °C.

Turning to `Cc1csc2ncc(C(=O)O)c(=O)n12`, the melting point was 249 to 251 °C.

`Cc1sc(C(N)=O)cc1N` showed a melting point of 179 to 181 °C.

`O=C(/C=C/c1ccccc1)c1ccc(Br)cc1` returned a melting point of 104 to 106 °C.

`Nc1[nH]ncc1CCCO` showed a melting point of 88 to 90 °C.

For the compound `NC(=S)c1ccc(Cl)c(Cl)c1`, the melting point lay in the range of 136 to 138 °C.

For the compound `O=C(Nc1ccccn1)C1CCCNC1` (centres undefined), the melting point is 94 to 96 °C.

Consider `Nc1cc(-c2ccco2)ccc1F`, for which the melting point lay within 40 to 42 °C.

For `C[C@H](N)C(N)=O`, the melting point is 67 to 69 °C.

Compound `O=C(O)c1cc(Cl)c(Br)[nH]1` returned a melting point of 168 to 170 °C.

For `O=C(O)c1cnn(C2CCCCC2)c1`, the melting point was in the range of 197 to 199 °C.

`Cc1cc(N)n(C)c(=O)c1` returned a melting point of 192 to 194 °C.

`COc1ccccc1Nc1ncccc1C(=O)O` displayed a melting point of 175 to 177 °C.

Turning to `Cc1nc2ncnn2c(C)c1CC(=O)O`, the melting point lay in the range of 220 to 222 °C.

Turning to `CC(C)(C)c1nc2ccc(N)cc2s1`, the melting point lay in the range of 137 to 139 °C.

In turn, `Nc1onc(C2CCC2)c1-c1ccc2c(c1)OCO2` had a melting point of 96 to 98 °C.

Regarding `CCc1nn(C)c(Cl)c1C=O`, the melting point lay in the range of 38 to 40 °C.

With `N#CCCn1cnc2ccccc2c1=O`, the melting point lay in the range of 142 to 144 °C.

`CC(C)(C(=O)O)c1cccs1` gave a melting point of 78 to 80 °C.

`CCOC(=O)c1c(N)sc2c1CCN(C(=O)OCC)C2` yielded a melting point of 145 to 147 °C.

Take `O=C(O)c1noc(-c2ccccc2F)n1`: the melting point lay in the range of 189 to 191 °C.

Consider `O=C(O)c1cc(F)ccc1I`, for which the melting point lay within 146 to 148 °C.

`N#Cc1ccc(=O)[nH]c1` yielded a melting point of 253 to 255 °C.

Consider `Clc1nc(-c2ccccn2)nc2scc(-c3ccccc3)c12`, for which the melting point is 160 to 162 °C.

Compound `Nc1ccccc1CN1CCC(CO)CC1` registered a melting point of 79 to 81 °C.

In turn, `Nc1ccc(Cl)cc1C(=O)NC1CC1` displayed a melting point of 147 to 149 °C.

As for `NC1CCS(=O)(=O)c2ccc(Cl)cc21` (centres undefined), the melting point lay within 57 to 59 °C.

Turning to `Nc1cnccc1O`, the melting point lay in the range of 156 to 158 °C.

For the compound `Cc1nn(Cc2ccc(Cl)cc2)c(C)c1C=O`, the melting point was in the range of 71 to 73 °C.

Compound `O=c1ccccn1CCO` displayed a melting point of 88 to 90 °C.

On to `CCN(CC)c1ccc(N)cc1S(=O)(=O)Nc1ccc(OC)cc1`, for which the melting point was 107 to 109 °C.

Regarding `CN(c1ccc(C(=N)N)cc1)C1CCCCC1`, the melting point was 122 to 124 °C.

Compound `O=[N+]([O-])c1c(F)ccc2ncccc12` had a melting point of 84 to 86 °C.

For the compound `COC(=O)c1cc(Br)cc(S(=O)(=O)Cl)c1`, the melting point lay within 59 to 61 °C.

In turn, `Cc1cc(Cl)c(O)cc1OCC(=O)O` yielded a melting point of 131 to 133 °C.

`Nc1ccnc(OC2CCCCC2)c1` registered a melting point of 114 to 116 °C.

In the case of `Cn1cnc2c(Br)cccc21`, the melting point was in the range of 101 to 103 °C.

`CC1CCc2c(sc3ncnc(Cl)c23)C1` (centres undefined): the melting point lay within 119 to 121 °C.

Compound `CC(C)n1nccc1C(=O)O` returned a melting point of 149 to 151 °C.

With `COc1cc(C(=O)O)ccc1OCCC(C)C`, the melting point was 92 to 94 °C.

`CC(C)n1[nH]c(-c2ccc(F)cc2)cc1=O`: the melting point fell in the range of 156 to 158 °C.

For `NC1=NN(c2ccccc2)CC1`, the melting point lay in the range of 168 to 170 °C.

As for `Cc1sc(N)nc1-c1ccc(Br)cc1`, the melting point lay within 147 to 149 °C.

Regarding `Cc1c(C(=O)O)c(=O)oc2ccccc12`, the melting point lay in the range of 163 to 165 °C.

`CC(C)C(=O)Nc1cc2ccccc2cc1C(=O)O`: the melting point is 203 to 205 °C.

`O=c1[nH]cnc2sc3c(c12)CCCCC3` gave a melting point of 107 to 109 °C.

The compound `COc1ccc2[nH]cc(C(=O)O)c2c1` came in with a melting point of 179 to 181 °C.

`CC(C)(C)C(=O)NCCc1ccc(S(N)(=O)=O)s1` had a melting point of 144 to 146 °C.

Take `Cn1nccc1C1CCNCC1`: the melting point is 66 to 68 °C.

In turn, `COc1ccc(C(CN)NC(=O)OC(C)(C)C)cc1` (centres undefined) displayed a melting point of 90 to 92 °C.

For the compound `COC(=O)c1sc2nc(CCl)nc(Cl)c2c1C`, the melting point lay in the range of 125 to 127 °C.

On to `CCOc1ccc(-n2c(C)cc(C(=O)CCl)c2C)cc1`, for which the melting point is 118 to 122 °C.

`Cn1ccc(C(=O)O)c1`: the melting point fell in the range of 144 to 146 °C.

For the compound `Cc1ccc(N)cc1S(C)(=O)=O`, the melting point was 72 to 74 °C.

`COc1cc(C)c(S(=O)(=O)Cl)cc1OC` came in with a melting point of 73 to 75 °C.

For the compound `CNC(=O)c1ccc(S(=O)(=O)Cl)cc1`, the melting point is 125 to 130 °C.

`N=C(N)NS(=O)(=O)c1ccccc1` came in with a melting point of 211 to 213 °C.

As to `Cc1ccnc2nc(C(=O)O)nn12`, the melting point lay within 240 to 242 °C.

`O=C1OCCN1c1ccc(O)cc1` had a melting point of 177 to 179 °C.

For the compound `C1=CCC(c2nc3ccccc3[nH]2)CC1` (centres undefined), the melting point lay within 209 to 211 °C.

`O=Cc1cnc2cnccn12`: the melting point fell in the range of 178 to 180 °C.

As for `Cc1nc2cc(NC(=O)CCC(=O)O)ccc2o1`, the melting point lay in the range of 184 to 186 °C.

`COc1ccc2nc(C)c(C(=O)O)cc2c1` showed a melting point of 221 to 223 °C.

`Cc1cc(N)n(Cc2ccccc2)n1`: the melting point was in the range of 68 to 70 °C.

For `CCc1nc2sccc2c(=O)n1N`, the melting point lay in the range of 132 to 134 °C.

The compound `N#Cc1ccc(NCCN)nc1` came in with a melting point of 103 to 105 °C.

In turn, `CC(C)n1c(S)nc2ccccc21` came in with a melting point of 138 to 140 °C.

With `NS(=O)(=O)Cc1ccc([N+](=O)[O-])cc1Br`, the melting point lay in the range of 200 to 202 °C.

Consider `COc1ccc(-n2c(S)nc3ccccc32)cc1`, for which the melting point was 213 to 215 °C.

In the case of `CC(=O)c1ccc(-c2ccc(Br)s2)cc1`, the melting point was in the range of 148 to 150 °C.

Regarding `CC(=O)N1CCCc2ccc(S(=O)(=O)Cl)cc21`, the melting point was 93 to 95 °C.

In turn, `COc1cc(C(=O)O)n(-c2ncccc2Cl)n1` showed a melting point of 242 to 244 °C.

`O=C1NC2(CCCCC2)NC2=C1CCCC2` showed a melting point of 193 to 195 °C.

Consider `CC1(c2ccc(OC(F)F)cc2)NC(=O)NC1=O` (centres undefined), for which the melting point fell in the range of 141 to 143 °C.

The compound `CCOc1ccc(C(=O)N2CCCCC2)cc1N` displayed a melting point of 143 to 145 °C.

As for `CCn1nc(C)c(C(=O)O)c1C(F)F`, the melting point was in the range of 134 to 136 °C.

Regarding `O=Cc1cc(-n2ccnc2)cs1`, the melting point lay in the range of 123 to 125 °C.

On to `O=C1COc2cc(C(=O)O)ccc2N1`, for which the melting point lay in the range of 321 to 323 °C.

Take `Nc1ccc(N2CCCC2=O)cc1`: the melting point is 125 to 127 °C.

As for `FC(F)(F)c1cc(Cl)ccc1-n1nnnc1CCl`, the melting point lay in the range of 101 to 103 °C.

Values taken from a melting point compilation (Tetko et al.).
